Earlier results as cited in patent publication US5578629A, “Benzamide-containing inhibitors of farnesyl-protein transferase” (Merck & Co., Inc., priority 1995, dated 1996).

Tested on: farnesyl-protein transferase
Conditions: via inhibition of HMG-CoA reductase

Row | SMILES | Indirect inhibition of farnesyl-protein transferase in vivo
1 | CC[C@H](C)C(=O)O[C@H]1CCC=C2C=C[C@H](C)[C@H](CC[C@@H]3C[C@@H](O)CC(=O)O3)[C@H]21 [compactin] | Indirect inhibition of farnesyl-protein transferase in vivo has been demonstrated
2 | CC[C@H](C)C(=O)O[C@H]1C[C@@H](C)C=C2C=C[C@H](C)[C@H](CC[C@@H]3C[C@@H](O)CC(=O)O3)[C@H]21 [lovastatin] | Indirect inhibition of farnesyl-protein transferase in vivo has been demonstrated
